Source: patent publication US20170266213A1, “USE OF BETA-NICOTINAMIDE MONONUCLEOTIDE IN PREPARATION OF ANTI-AGING DRUGS OR HEALTH-CARE PRODUCTS” (BONTAC BIO-ENGINEERING (SHENZHEN) CO., LTD, priority 2015, published 2017)

System: Kunming mice (aged about 52 weeks)
Assay: Mouse survival test
Assay type: in vivo
Experimental: 1.1 Experimental material: β-nicotinamide mononucleotide (NMN)
1.2 Experimental animal: Kunming mice (aged about 52 weeks)
1.3 Administration method:
Blank group: fed on full diet;
Treatment group: fed on full diet supplemented with NMN (containing adjuvants) fully dissolved in water, where a single dose of NMN is 20 mg/Kg body weight/day;
Control group: fed on full diet supplemented with adjuvants equivalent to those in the Treatment group;
Mouse survival test: […] aged 52 weeks were assigned to two groups (that is, a blank control group and a treatment group) at random, each group having 40 animals.
Experimental method: see Function Evaluation procedures and Specification of test methods for health food—(2003 Edition, the Ministry of Health).

## NC(=O)c1ccc[n+]([C@@H]2O[C@H](COP(=O)([O-])O)[C@@H](O)[C@H]2O)c1 [NMN, β-nicotinamide mononucleotide]
NMN 20 mg/Kg body weight/day, versus blank and control groups (Table 1)
  extension of the lifespan of mice: about 29%
Aged 52 weeks at start, NMN 20 mg/Kg body weight/day in full diet, 100 weeks
  Morbility over 100 weeks (%): 38%
Aged 52 weeks at start, NMN 20 mg/Kg body weight/day in full diet, 120 weeks
  Morbility over 120 weeks (%): 52%
Aged 52 weeks at start, NMN 20 mg/Kg body weight/day in full diet, 140 weeks
  Morbility over 140 weeks (%): 61%
Aged 52 weeks at start, NMN 20 mg/Kg body weight/day in full diet, 160 weeks
  Morbility over 160 weeks (%): 74%
Aged 52 weeks at start, NMN 20 mg/Kg body weight/day in full diet, 180 weeks
  Morbility over 180 weeks (%): 100%
Composition containing NMN
  effect on the lifespan of mice (in words): obviously extend the lifespan of mice
